Laboratory results: patent US20040147494A1, “Use” (priority 2001, published 2004)
“And” between values parts separate entries of the source, which are not always exact repeats. Equal values may be shown once. Where a name gives a salt, the structure may show the parent alone. Read-outs that look alike come from different tables or passages of the source.

Legend:
11 β-HSD type 2 = target: T1, 11 β-HSD type 2 (Rattus norvegicus, UniProt P50233); assay: biochemical; settings: for inhibition at 10 µM: read-out: % […]→E ± SD, inhibitor 10 μM
T1 construct: Both the kidneys and livers were homogenised on ice in PBS- sucrose buffer; tissue Harlan Olac, Bicester, Oxon, UK (rats); host or cells: rat kidney homogenate supernatant (Wistar rat)
T1 sequence (P50233 1-400): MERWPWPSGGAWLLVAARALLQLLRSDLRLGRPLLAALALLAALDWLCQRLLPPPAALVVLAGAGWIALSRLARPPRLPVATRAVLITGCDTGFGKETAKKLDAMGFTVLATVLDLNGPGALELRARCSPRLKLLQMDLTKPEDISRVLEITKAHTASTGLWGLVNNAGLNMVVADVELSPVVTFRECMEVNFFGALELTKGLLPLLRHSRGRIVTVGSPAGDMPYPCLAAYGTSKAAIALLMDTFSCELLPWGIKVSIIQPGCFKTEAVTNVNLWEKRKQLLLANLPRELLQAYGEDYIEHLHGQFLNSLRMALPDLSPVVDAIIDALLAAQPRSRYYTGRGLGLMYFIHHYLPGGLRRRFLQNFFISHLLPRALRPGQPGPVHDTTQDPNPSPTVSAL
Procedure: Enzymes—Rat livers and rat kidneys were obtained from normal Wistar rats (Harlan Olac, Bicester, Oxon,UK). Both the kidneys and livers were homogenised on ice in PBS- sucrose buffer (1 g/10 ml) using an Ultra-Turrax. After the livers and kidneys were homogenised the homogenate was centrifuged for five minutes at 4000 rpm. The supernatant obtained was removed and stored in glass vials at −20° C. The amount of protein per μl of rat liver and kidney cytosol was determined using the Bradford method.
The same procedure was used for the 11 β-HSD type 2 assay, the conversion F to E, to determine the amount of rat kidney to be used and the incubation time.
In these assays the influence of different inhibitors on the 11 β-HSD activity both in reductive (type 1) and oxidative (type 2) directions were assessed. In the reductive direction E is the substrate and F the product and visa versa in the case of oxidation. The method described here is for the oxidative direction.
The substrate solution contained about 50,000 cpm/ml ^3H—F in PBS-sucrose and 0.5 pM F. 1 ml of the substrate solution was added to each tube, the inhibitors were also added, at a 10 μM concentration, to each tube except to the “control” and “blank” tubes. 150 μL was added to all tubes except to the blanks, this was done to correct for the amount of ^3H[…]. The tubes were incubated for 60 minutes in a mechanically shaken water bath at 37° C. […] After incubation 50 μL of recovery was added to correct for the losses made in the next steps, containing 5000 cpm/50 μL of ^14C-E and 50 μg/50 μL of unlabelled E (to visualise the spot on the TLC-plate). The aqueous mixture was then extracted with 4 ml of ether (2×30 sec cycle, vortex mix). After freezing the aqueous phase, the ether (upper) layer was decanted into smaller tubes and evaporated at 45° C. until completely dry. The residue was then re-dissolved in 6 drops of ether and transferred to a TLC-plate. The TLC-plate was developed in chloroform:methanol (9:1 v/v) solvent system, the TLC-plate ran for about 90 minutes until the solvent front had moved about 18 cm. The position of the product E was visualised under UV-light and cut out from the TLC-plate and put into scintillation vials. Radioactivity was eluted over 5 minutes with 0.5 ml methanol. 0.5 ml of PBS- sucrose and 10 ml of Ecoscint were then added and vortex mixed before counting in the scintillation counter. Before counting the samples, two total activity vials were prepared. These contained 0.5 ml of the substrate solution, 50 μL of the recovery, 0.5 ml of methanol and 10 ml of Ecoscint. These two total activity vials were needed to determine the amount of ^14C-E and ^3H—F added in the beginning to make the calculations.
To look at the percentage of inhibition four different concentrations, 1, 5, 10 and 20 μM, were used. The method for both the rat liver, type 1 the reductive, and rat kidney, type 2 the oxidative, stay the same throughout the entire experiment.
In this experiment the influence of different inhibitors on the conversion E to F and F to E was determined. The reason why inhibition in both directions was examined was to make a comparison between the inhibitors and which type of 11 β-HSD they inhibit more. Thirty-two compounds were screened for their ability to inhibit 11 β-HSD type 1 (E to F) and type 2 (F to E). […] The percent of inhibition was calculated as the percentage of decrease in radio labelled ^3H-E and ^3H—F of product formed, compared with the control activity (the tubes without an inhibitor in it). All the results calculated are means, n=2.

11 β-HSD type 1 = target: T2, 11 β-HSD type 1 (Rattus norvegicus, UniProt P16232); assay: biochemical; format: biochemical; settings: rat liver cytosol 25 μL, 90 min, 37° C., cortisone (E) to cortisol (F), vs control without inhibitor, means n=2; for inhibition at 10 µM: read-out: % […]→F ± SD, inhibitor 10 μM; for % INHIBITION E→F ± SD: inhibitor 10 μM
T2 construct: Both the kidneys and livers were homogenised on ice in PBS- sucrose buffer; tissue Harlan Olac, Bicester, Oxon, UK (rats); host or cells: rat liver homogenate supernatant (Wistar rat)

[1] = rat kidney cytosol 150 μL, 60 min, 37° C., cortisol (F) to cortisone (E), vs control without inhibitor, means n=2, read-out: % INHIBITION F→E ± SD
[2] = read-out: % INHIBITION E→F ± SD

T2 sequence (P16232 whole entry): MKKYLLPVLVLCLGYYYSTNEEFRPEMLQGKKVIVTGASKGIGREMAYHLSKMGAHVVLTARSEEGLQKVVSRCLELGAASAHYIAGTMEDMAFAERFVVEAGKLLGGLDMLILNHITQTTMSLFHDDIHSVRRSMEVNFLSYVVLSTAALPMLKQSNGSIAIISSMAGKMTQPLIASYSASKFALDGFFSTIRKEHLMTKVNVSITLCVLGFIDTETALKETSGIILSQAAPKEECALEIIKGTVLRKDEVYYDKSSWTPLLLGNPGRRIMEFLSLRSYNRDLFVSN

SMILES	inhibition at 10 µM (11 β-HSD type 2; [1])	inhibition at 10 µM (11 β-HSD type 1; [2])	other results
C[C@]12CCC(=O)C=C1CCC1C2C(O)C[C@]2(C)C(=O)CCC12 (stereo partly drawn) [11β-OH-Androstenedione, reference compound]	40.9 ± 4.67%	55.2 ± 0.26%	–
CC1(C)C(=O)CC[C@]2(C)C3C(=O)C=C4[C@H]5C[C@@](C)(C(=O)O)CC[C@]5(C)CC[C@@]4(C)[C@]3(C)CC[C@@H]12 (stereo partly drawn) [BLE99005, 3,11-Dioxo-18α-olean-12-en-30-oic acid]	–	87%	% INHIBITION E→F ± SD (11 β-HSD type 1; 10 µM): 86.9 ± 0.882%
CC1(C)CC[C@]2(C(=O)O)CC[C@]3(C)C(=CC[C@@H]4[C@@]5(C)CCC(=O)C(C)(C)[C@@H]5CC[C@]43C)[C@@H]2C1 [BLE99006, 3-Oxo-oleanoic acid]	–	–	% INHIBITION F→E ± SD (11 β-HSD type 2; inhibitor 10 μM, rat kidney cytosol 150 μL, 60 min, 37° C., cortisol (F) to cortisone (E), vs control without inhibitor, means n=2): 45.6 ± 11.030%; % INHIBITION E→F ± SD (11 β-HSD type 1; 10 µM): 22% and 22.2 ± 0.354%
CC1(C(=O)O)CCC2(C)CCC3C(=CC(=O)C4C3(C)CCC3C(C)(C)C(OC(=O)CCC(=O)O)CCC34C)C2C1 (stereo not shown) [Carbenoxalone, Carbenoxalone (disodium salt), reference compound]	100%	52.2 ± 4.8%	–
C[C@]12CCC(=O)C=C1CC[C@@H]1[C@@H]2[C@@H](O)C[C@@]2(C)[C@H]1CC[C@]2(O)C(=O)CO [Cortisol, reference compound]	54.7 ± 4.24%	49.6 ± 5.87%	–
CC(=O)C1CCC2C3CCC4=CC(=O)CC[C@]4(C)C3[C@H](O)C[C@]12C (stereo partly shown) [DG322B, 11-hydroxy-Progesterone]	–	32.6 ± 3.75%	–
C[C@H](CCC(=O)O)[C@H]1CC[C@H]2[C@@H]3CC[C@@H]4C[C@H](O)CC[C@]4(C)[C@H]3C[C@H](O)[C@]12C [Deoxycholic acid, reference compound]	-1.1 ± 8.27%	27.6 ± 7.85%	stimulation of 11 β-HSD type 2 (F to E) (11 β-HSD type 2; inhibitor 10 μM, rat kidney, printed as stimulation, not inhibition): 1%
CC(=O)[C@H]1CC[C@H]2[C@@H]3CC=C4C[C@@H](O)CC[C@]4(C)[C@H]3CC[C@]12C [Pregnenolone, reference compound]	–	–	inhibition at 10 µM (11 β-HSD type 2; rat kidney cytosol 150 μL, 60 min, 37° C., cortisol (F) to cortisone (E), vs control without inhibitor, means n=2): 42.1 ± 0.777%; inhibition at 10 µM (11 β-HSD type 1): 49.8 ± 9.36%
CC(=O)C1CCC2C3CCC4=CC(=O)CC[C@]4(C)C3CC[C@]12C (stereo partly shown) [Progesterone, reference compound]	68.5 ± 0.707%	73%	–
CC1(C)C2CC[C@]3(C)C(CC=C4[C@@H]5C[C@@](C)(C(=O)O)CC[C@]5(C)CC[C@]43C)[C@@]2(C)CC[C@@H]1O (stereo partly drawn) [STX122, 11-Deoxo-18β-glycerrhetinic acid]	109 ± 1.64%	92.7 ± 1.23%	–
COC(=O)[C@@]1(C)CC[C@]2(C)CC[C@]3(C)C(=CC(=O)C4[C@@]5(C)CCC(=O)C(C)(C)C5CC[C@]43C)[C@@H]2C1 (stereo partly drawn) [STX194, Methyl 3-oxo-18β-glycerrhetate]	75 ± 2.93%	65.8 ± 5.69%	–
COC(=O)[C@@]1(C)CC[C@]2(C)CC[C@]3(C)C(=CC(=O)C4[C@@]5(C)CC[C@H](O)C(C)(C)C5CC[C@]43C)[C@@H]2C1 (stereo partly drawn) [STX195, 3β-Hydroxy-11-oxo-18β-glycyrrhetinic acid methyl ester]	105 ± 1.55%	85.4 ± 2.29%	–
CO[C@H]1CC[C@@]2(C)C(CC[C@]3(C)C2C(=O)C=C2[C@@H]4C[C@@](C)(C(=O)O)CC[C@]4(C)CC[C@]23C)C1(C)C (stereo partly drawn) [STX195a, 3β-Methoxy-11-oxo-18β-glycerrhetinic acid]	90.3 ± 1.98%	53 ± 1.02%	–
CCO[C@H]1CC[C@@]2(C)C(CC[C@]3(C)C2C(=O)C=C2[C@@H]4C[C@@](C)(C(=O)O)CC[C@]4(C)CC[C@]23C)C1(C)C (stereo partly drawn) [STX196a, 3β-Ethoxy-11-oxo-18β-glycerrhetinic acid]	93.9 ± 1.77%	55 ± 0.022%	–
CC1(C)[C@@H](O)CC[C@]2(C)[C@H]3C(=O)C=C4[C@@H]5C[C@@](C)(C(=O)OCCc6ccccc6)CC[C@]5(C)CC[C@@]4(C)[C@]3(C)CC[C@@H]12 [STX197, 3β-hydroxy-11-oxo-18β-glycyrrhetinic acid phenylethyl ester]	–	–	% INHIBITION E→F ± SD (11 β-HSD type 1): 53.0 ± 0.935%
CC1(C)[C@@H](O)CC[C@]2(C)[C@H]3C(=O)C=C4[C@@H]5C[C@@](C)(C(=O)O)CC[C@]5(C)CC[C@@]4(C)[C@]3(C)CC[C@@H]12 [STX352, 3β-Hydroxy-11-oxo-18β,20β-olean-12-en-29-oic acid, reference compound]	–	85.2 ± 3.69%	–
CC1(C)[C@@H](O)CC[C@]2(C)[C@H]3C(=O)C=C4[C@H]5C[C@@](C)(C(=O)O)CC[C@]5(C)CC[C@@]4(C)[C@]3(C)CC[C@@H]12 [STX353, 3β-Hydroxy-11-oxo-18α,20β-olean-12-en-29-oic acid, reference compound]	–	89 ± 1.49%	–
CC1(C)C(O)CC[C@@]2(C)C1CC[C@]1(C)C2CC=C2[C@@H]3C[C@@](C)(C(=O)OCc4ccccc4)CC[C@]3(C)CC[C@]21C (stereo partly shown) [STX 296]	33.8 ± 15.8%	37.7 ± 8.85%	–
CCOC(=O)[C@@]1(C)CC[C@]2(C)CC[C@]3(C)C(=CC(=O)C4[C@@]5(C)CC[C@H](OCc6ccccc6)C(C)(C)C5CC[C@]43C)[C@@H]2C1 (stereo partly shown) [STX 297]	58.7 ± 10.4%	34.3 ± 8.26%	–
CC(C)(C)OC(=O)[C@@]1(C)CC[C@]2(C)CC[C@]3(C)C(=CC(=O)C4[C@@]5(C)CC[C@H](O)C(C)(C)C5CC[C@]43C)[C@@H]2C1 (stereo partly shown) [STX 298]	22.6 ± 12.9%	50.6 ± 4.43%	–
COC(=O)[C@@]1(C)CC[C@]2(C)CC[C@]3(C)C(=CCC4[C@@]5(C)CC[C@H](O)C(C)(C)C5CC[C@]43C)[C@@H]2C1 (stereo partly shown) [STX 299]	19.5 ± 1.66%	20.2 ± 1.89%	–
CC1(C)C(=O)CC[C@@]2(C)C1CC[C@]1(C)C2C(=O)C=C2[C@@H]3C[C@@](C)(C(=O)O)CC[C@]3(C)CC[C@]21C (stereo partly drawn) [STX 347, 3-Oxo-18β-glycerrhetinic acid]	–	89.37 ± 0.1%	–
CC1(C)C2CC[C@]3(C)C(C(=O)C=C4[C@@H]5C[C@@](C)(C(=O)OCc6ccccc6)CC[C@]5(C)CC[C@]43C)[C@@]2(C)CC[C@@H]1O (stereo partly shown) [STX 348]	94.77 ± 0.17%	63.4 ± 1.45%	–
CC1(C)C2CC[C@]3(C)[C@H](C(=O)C=C4[C@@H]5C[C@@](C)(C(=O)NCc6ccccc6)CC[C@]5(C)CC[C@]43C)[C@@]2(C)CC[C@@H]1O (stereo partly drawn) [STX 366, 18β-Glycyrrhetinic Acid Benzylamide]	–	85.2 ± 1.09%	–
